From PMC9822074, “Triterpenic Acid Amides as Potential Inhibitors of the SARS-CoV-2 Main Protease” (Molecules, 2022)

Biological target: T1, SARS-CoV-2 main protease (Mpro, 3CLpro) (Severe acute respiratory syndrome coronavirus 2, UniProt P0DTD1)
T1 construct: gene rep
Assay: FRET peptide cleavage assay
Format: biochemical
Source text: FRET peptide cleavage assay on SARS-CoV-2 main protease (Mpro, 3CLpro)

Compound | IC50
C=C(C)[C@@H]1CC[C@]2(C(=O)NCCOc3ccc(CCOc4ccc(C[C@H](OCC)C(=O)O)cc4)cc3)CC[C@]3(C)[C@H](CC[C@@H]4[C@@]5(C)CCC(=O)C(C)(C)[C@@H]5CC[C@]43C)[C@@H]12 [1a] | 100 ± 5 µM
CCO[C@@H](Cc1ccc(OCCc2ccc(OCCNC(=O)[C@]34CC[C@@H](C)[C@H](C)[C@H]3C3=CC[C@@H]5[C@@]6(C)CC[C@H](O)C(C)(C)[C@@H]6CC[C@@]5(C)[C@]3(C)CC4)cc2)cc1)C(=O)O [1d] | 100 ± 5 µM
CCO[C@@H](Cc1ccc(OCCc2ccc(OCCNC(=O)[C@]34CC[C@@H](C(C)C)[C@@H]3[C@H]3CC[C@@H]5[C@@]6(C)CCC(=O)C(C)(C)[C@@H]6CC[C@@]5(C)[C@]3(C)CC4)cc2)cc1)C(=O)O [1b] | 100 ± 5 µM
CCO[C@@H](Cc1ccc(OCCc2ccc(OCCNC(=O)[C@]34CC[C@@H](C)[C@H](C)[C@H]3C3=CC[C@@H]5[C@@]6(C)C[C@@H](O)[C@H](O)C(C)(C)[C@@H]6CC[C@@]5(C)[C@]3(C)CC4)cc2)cc1)C(=O)O [1e] | 25 ± 3 µM
